Key:
Type in all cases: in vivo
[1] = system: common (oilseed) sunflower (Helianthus annuus); test: Test C pre-/postemergence: sunflower; conditions: Preemergence
Text: (§1) Seeds of plant species selected from blackgrass (Alopecurus myosuroides), bromegrass, downy (downy bromegrass, Bromus tectorum), foxtail, green (green foxtail, Setaria viridis), ryegrass, Italian (Italian ryegrass, Lolium multiflorum), winter wheat (Triticum aestivum), wild oat (Avena fatua), galium (catchweed bedstraw, Galium aparine), bermudagrass (Cynodon dactylon), surinam grass (Brachiaria decumbens), cocklebur (common cocklebur, Xanthium strumarium), corn (Zea mays), large crabgrass (Digitaria sanguinalis), woolly cupgrass (Eriochloa villosa), foxtail, giant (giant foxtail, Setaria faberii), goosegrass (Eleusine indica), johnsongrass (Sorghum halepense), kochia (Kochia scoparia), lambsquarters (Chenopodium album), morningglory (Ipomoea coccinea), nightshade (eastern black nightshade, Solanum ptycanthum), nutsedge, yellow (yellow nutsedge, Cyperus esculentus), pigweed (Amaranthus retroflexus), ragweed (common ragweed, Ambrosia elation), soybean (Glycine max), common (oilseed) sunflower (Helianthus annuus), Russian thistle (Salsola kali) and velvetleaf (Abutilon theophrasti) were planted into a blend of loam soil and sand and treated preemergence with test chemicals formulated in a non-phytotoxic solvent mixture which included a surfactant.
(§2) At the same time, plants selected from these crop and weed species and also barley (winter barley, Hordeum vulgare), canarygrass (Phalaris minor), chickweed (common chickweed, Stellaria media) windgrass (Apera spica-venti) and deadnettle (henbit deadnettle, Lamium amplexicaule) were planted in pots containing Redi-Earth® planting medium (Scotts Company, 14111 Scottslawn Road, Marysville, Ohio 43041) comprising spaghnum peat moss, vermiculite, wetting agent and starter nutrients and treated with postemergence applications of test chemicals formulated in the same manner. Plants ranged in height from 2 to 18 cm (1- to 4-leaf stage) for postemergence treatments.
(§3) Treated plants and controls were maintained in a greenhouse for 13 to 15 days, after which time all species were compared to controls and visually evaluated. Plant response ratings, summarized in Table C, are based on a scale of 0 to 100 where 0 is no effect and 100 is complete control. A dash (-) response means no test result.

[2] = system: lambsquarters (Chenopodium album); test: Test D pre-/postemergence: lambsquarters
Text: (§4) Seeds of plant species selected from bluegrass (annual bluegrass, Poa annua), blackgrass (Alopecurus myosuroides), canarygrass (Phalaris minor), chickweed (common chickweed, Stellaria media), galium (catchweed bedstraw, Galium aparine), bromegrass, downy (downy bromegrass, Bromus tectorum), field poppy (Papaver rhoeas), field violet (Viola arvensis), foxtail, green (green foxtail, Setaria viridis), deadnettle (henbit deadnettle, Lamium amplexicaule), ryegrass, Italian (Italian ryegrass, Lolium multiflorum), kochia (Kochia scoparia), lambsquarters (Chenopodium album), oilseed rape (Brassica napus), pigweed (Amaranthus retroflexus), Russian thistle (Salsola iberica), chamomile (scentless chamomile, Matricaria inodora), speedwell (bird's-eye speedwell, Veronica persica), barley, spring (spring barley, Hordeum vulgare), wheat, spring (spring wheat, Triticum aestivum), buckwheat, wild (wild buckwheat, Polygonum convolvulus), mustard, wild (wild mustard, Sinapis arvensis), oat, wild (wild oat, Avena fatua), radish, wild (wild radish, Raphanus raphanistrum), windgrass (Apera spica-venti), barley, winter (winter barley, Hordeum vulgare), and wheat, winter (winter wheat, Triticum aestivum) were planted into a silt loam soil and treated preemergence with test chemicals formulated in a non-phytotoxic solvent mixture which included a surfactant. At the same time, these same crop and weed species were planted in pots containing the planting medium comprising spaghnum peat moss, vermiculite, wetting agent and starter nutrients and treated with postemergence applications of the test chemicals formulated in the same manner. Plants ranged in height from 2 to 18 cm (1- to 4-leaf stage).
as §3, with “controlled growth environment” for “greenhouse”, “14” for “13”, “21 days” for “15 days,”, “D,” for “C,”

[3] = system: windgrass (Apera spica-venti); test: Test D pre-/postemergence: windgrass
Text: as §4
as §3, with “controlled growth environment” for “greenhouse”, “14” for “13”, “21 days” for “15 days,”, “D,” for “C,”

[4] = system: woolly cupgrass (Eriochloa villosa); test: Test C pre-/postemergence: woolly cupgrass
In short: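 Preemergence on seeds in loam/sand, postemergence on 2–18 cm (1–4-leaf) plants in peat-based medium; compounds in non-phytotoxic solvent with surfactant. After 13–15 days in greenhouse, visual rating versus controls, 0 (no effect) to 100 (complete control).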

[5] = system: barley, winter (winter barley, Hordeum vulgare); test: Test D pre-/postemergence: barley, winter
Text: as §4
as §3, with “controlled growth environment” for “greenhouse”, “14” for “13”, “21 days” for “15 days,”, “D,” for “C,”

[6] = system: bermudagrass (Cynodon dactylon); test: Test C pre-/postemergence: bermudagrass
Text: as §1, §2, §3

[7] = 125 g ai/ha, scale 0 to 100, 0 no effect, 100 complete control
[8] = 250 g ai/ha, scale 0 to 100, 0 no effect, 100 complete control
[9] = Postemergence, 31 g ai/ha, scale 0 to 100 (0 no effect, 100 complete control)
[10] = Postemergence, 62 g ai/ha, scale 0 to 100 (0 no effect, 100 complete control)
[11] = Postemergence, 125 g ai/ha, scale 0 to 100, 0 no effect, 100 complete control
[12] = Postemergence, 250 g ai/ha, scale 0 to 100 (0 no effect, 100 complete control)
[13] = Postemergence, 16 g ai/ha, scale 0 to 100
[14] = Postemergence, 250 g ai/ha, scale 0 to 100
[15] = Preemergence, 31 g ai/ha, scale of 0 to 100, 0 is no effect, 100 is complete control
[16] = Preemergence, 125 g ai/ha, scale 0 to 100, 0 no effect, 100 complete control
[17] = Preemergence, 250 g ai/ha, scale 0 to 100, 0 no effect, 100 complete control
[18] = Preemergence, 62 g ai/ha, scale 0 to 100, 0 no effect, 100 complete control
[19] = Preemergence, 16 g ai/ha, scale 0 to 100, 0 no effect, 100 complete control
[20] = Preemergence, 31 g ai/ha, scale 0 to 100, 0 no effect, 100 complete control
[21] = Preemergence, 62 g ai/ha, scale 0 to 100
[22] = Preemergence, 125 g ai/ha, scale 0 to 100
[23] = Preemergence, 31 g ai/ha, scale 0 (no effect) to 100 (complete control)

SMILES: Cc1nn(-c2ccc(C(F)(F)F)cn2)nc1Oc1ccnc(C(F)(F)F)c1 [Compound 23]
- Plant response rating, Sunflower ([1]; 31 g ai/ha, scale of 0 to 100, 0 is no effect, 100 is complete control): 0
- Plant response rating, Sunflower ([1]; 62 g ai/ha, scale of 0 to 100, 0 is no effect, 100 is complete control): 0
- Plant response rating, Sunflower [1, 7]: 0
- Plant response rating, Sunflower [1, 8]: 0
- Plant response rating: Lambsquarters [2, 9]: 30
- Plant response rating: Lambsquarters [2, 10]: 80
- Plant response rating: Lambsquarters [2, 11]: 100
- Plant response rating: Lambsquarters [2, 12]: 100
- Plant response rating, Lambsquarters [2, 13]: 30
- Plant response rating: Windgrass [3, 9]: 5
- Plant response rating: Windgrass [3, 10]: 10
- Plant response rating: Windgrass [3, 11]: 20
- Plant response rating: Windgrass [3, 12]: 30
- Plant response rating, Windgrass [3, 13]: 0
- Plant response rating, Cupgrass, Woolly [4, 9]: 10
- Plant response rating, Cupgrass, Woolly [4, 10]: 10
- Plant response rating, Cupgrass, Woolly [4, 11]: 15
- Plant response rating, Cupgrass, Woolly [4, 14]: 50
- Plant response rating, Cupgrass, Woolly [4, 15]: 95
- Plant response rating, Cupgrass, Woolly ([4]; Preemergence, 62 g ai/ha, scale of 0 to 100, 0 is no effect, 100 is complete control): 100
- Plant response rating, Cupgrass, Woolly [4, 16]: 100
- Plant response rating, Cupgrass, Woolly [4, 17]: 100
- Plant response rating: Barley, Winter [5, 9]: 0
- Plant response rating: Barley, Winter [5, 10]: 10
- Plant response rating: Barley, Winter [5, 11]: 10
- Plant response rating: Barley, Winter [5, 12]: 20
- Plant response rating, Barley, Winter [5, 13]: 0
- Plant response rating, Bermudagrass [6, 9]: 5
- Plant response rating, Bermudagrass [6, 10]: 10
- Plant response rating, Bermudagrass [6, 11]: 15
- Plant response rating, Bermudagrass [6, 14]: 30
- Plant response rating, Bermudagrass [6, 15]: 100
- Plant response rating, Bermudagrass [6, 18]: 100
- Plant response rating, Bermudagrass [6, 16]: 100
- Plant response rating, Bermudagrass [6, 17]: 100

SMILES: CCOc1nn(-c2ccc(F)cc2)nc1Cc1ccnc(C(F)(F)F)c1 [Compound 196, 4-[[5-ethoxy-2-(4-fluorophenyl)-2H-1,2,3-triazol-4-yl]methyl]-2-(trifluoromethyl)pyridine]
- Plant response rating, Sunflower ([1]; 31 g ai/ha, scale 0 (no effect) to 100 (complete control)): 5
- Plant response rating, Sunflower ([1]; 62 g ai/ha, scale 0 to 100, 0 no effect, 100 complete control): 20
- Plant response rating, Sunflower [1, 7]: 30
- Plant response rating, Sunflower [1, 8]: 40
- Plant response rating: Lambsquarters [2, 9]: 90
- Plant response rating: Lambsquarters [2, 10]: 90
- Plant response rating: Lambsquarters [2, 11]: 95
- Plant response rating, Lambsquarters [2, 13]: 85
- Plant response rating, Lambsquarters [2, 19]: 55
- Plant response rating, Lambsquarters [2, 20]: 65
- Plant response rating, Lambsquarters [2, 21]: 100
- Plant response rating, Lambsquarters [2, 22]: 100
- Plant response rating: Windgrass [3, 10]: 95
- Plant response rating: Windgrass [3, 11]: 95
- Plant response rating, Windgrass [3, 13]: 60
- Plant response rating, Windgrass ([3]; Postemergence, 31 g ai/ha, scale 0 to 100): 75
- Plant response rating, Windgrass [3, 19]: 20
- Plant response rating, Windgrass [3, 20]: 100
- Plant response rating, Windgrass [3, 21]: 100
- Plant response rating, Windgrass [3, 22]: 100
- Plant response rating, Cupgrass, Woolly [4, 9]: 30
- Plant response rating, Cupgrass, Woolly [4, 10]: 80
- Plant response rating, Cupgrass, Woolly [4, 11]: 85
- Plant response rating, Cupgrass, Woolly [4, 14]: 90
- Plant response rating, Cupgrass, Woolly [4, 23]: 90
- Plant response rating, Cupgrass, Woolly [4, 18]: 98
- Plant response rating, Cupgrass, Woolly [4, 16]: 100
- Plant response rating, Cupgrass, Woolly [4, 17]: 100
- Plant response rating: Barley, Winter [5, 9]: 20
- Plant response rating: Barley, Winter [5, 10]: 35
- Plant response rating: Barley, Winter [5, 11]: 40
- Plant response rating, Barley, Winter [5, 13]: 15
- Plant response rating, Barley, Winter [5, 19]: 5
- Plant response rating, Barley, Winter [5, 20]: 10
- Plant response rating, Barley, Winter [5, 21]: 15
- Plant response rating, Barley, Winter [5, 22]: 40
- Plant response rating, Bermudagrass [6, 9]: 80
- Plant response rating, Bermudagrass [6, 10]: 80
- Plant response rating, Bermudagrass [6, 11]: 85
- Plant response rating, Bermudagrass [6, 14]: 90
- Plant response rating, Bermudagrass [6, 23]: 98
- Plant response rating, Bermudagrass [6, 18]: 98
- Plant response rating, Bermudagrass [6, 16]: 100
- Plant response rating, Bermudagrass [6, 17]: 100

Reference: patent publication US9302999B2, “Substituted triazoles as herbicides” (E. I. DU PONT DE NEMOURS AND COMPANY, priority 2012, dated 2016)
